The numbers were not newly measured in US20230390251A1, “METHODS OF TREATING RIBONUCLEOTIDE REDUCTASE-RELATED DISEASES WITH A RIBONUCLEOTIDE REDUCTASE INHIBITOR” (TAIHO PHARMACEUTICAL CO., LTD., priority 2020, published 2023), which cites them from elsewhere.

The target in the data set is T1, Ribonucleotide reductase (RNR) (Homo sapiens, UniProt P23921+P31350).
T1 sequence (P23921 1-792): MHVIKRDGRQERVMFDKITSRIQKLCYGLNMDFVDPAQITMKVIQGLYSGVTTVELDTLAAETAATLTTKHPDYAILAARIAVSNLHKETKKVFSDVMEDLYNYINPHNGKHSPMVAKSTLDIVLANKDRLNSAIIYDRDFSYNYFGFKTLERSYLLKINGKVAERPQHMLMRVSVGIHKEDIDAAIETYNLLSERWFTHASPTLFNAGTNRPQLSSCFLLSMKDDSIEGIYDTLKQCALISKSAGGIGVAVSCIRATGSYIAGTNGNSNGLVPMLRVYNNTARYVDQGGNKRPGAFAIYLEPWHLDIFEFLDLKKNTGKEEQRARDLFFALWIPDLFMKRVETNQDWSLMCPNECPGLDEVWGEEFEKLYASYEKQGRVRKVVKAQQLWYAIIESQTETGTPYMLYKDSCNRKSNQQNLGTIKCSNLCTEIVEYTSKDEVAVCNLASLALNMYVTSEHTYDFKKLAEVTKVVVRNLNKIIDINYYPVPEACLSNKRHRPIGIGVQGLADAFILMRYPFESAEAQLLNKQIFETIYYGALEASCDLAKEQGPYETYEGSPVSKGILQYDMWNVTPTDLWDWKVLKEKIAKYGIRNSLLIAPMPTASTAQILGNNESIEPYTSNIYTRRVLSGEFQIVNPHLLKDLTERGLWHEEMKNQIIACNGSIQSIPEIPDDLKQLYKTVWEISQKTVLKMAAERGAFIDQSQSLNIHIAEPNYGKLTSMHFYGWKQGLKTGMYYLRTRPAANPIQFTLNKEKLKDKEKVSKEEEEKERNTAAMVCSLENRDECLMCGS
T1 sequence (P31350 1-389): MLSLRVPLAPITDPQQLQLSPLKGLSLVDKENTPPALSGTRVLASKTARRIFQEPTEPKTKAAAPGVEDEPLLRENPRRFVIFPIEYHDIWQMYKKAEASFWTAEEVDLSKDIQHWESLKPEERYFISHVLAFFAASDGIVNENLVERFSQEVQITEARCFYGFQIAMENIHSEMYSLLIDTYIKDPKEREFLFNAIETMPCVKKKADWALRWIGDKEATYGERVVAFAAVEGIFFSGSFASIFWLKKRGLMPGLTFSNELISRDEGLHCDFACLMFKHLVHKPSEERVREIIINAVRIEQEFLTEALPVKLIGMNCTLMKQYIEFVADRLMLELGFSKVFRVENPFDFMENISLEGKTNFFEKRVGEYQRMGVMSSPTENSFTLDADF
Conditions: from the literature (NPL 7; PL 1); cited from earlier work.

The structures appear in SMILES notation.

Consider `Cc1ccc(F)c([C@@H](C)[C@H](NS(=O)(=O)c2ccc(Cl)cc2C(N)=O)c2n[nH]c(=O)o2)c1C` [Compound A, 5-chloro-2-(N-((1S,2R)-2-(6-fluoro-2,3-dimethylphenyl)-1-(5-oxo-4,5-dihydro-1,3,4-oxadiazol-2-yl)propyl)sulfamoyl)benzamide], for which the RNR inhibitory activity result is on record as “potent”.
